The source of these data is ChEMBL document CHEMBL1148388, “Restriction of a peptide turn conformation and conformational analysis of guanidino group using arginine-proline fused amino acids: application to mini atrial natriuretic peptide on binding to the receptor” (J Med Chem, 2004).

As a reminder, the EC50 is the concentration at which the effect is half-maximal.

Numbered stars: 1 amine (or outer) side, 2 acyl side, 3 side chain; on linkers, the order of the positions; unused ones are H or OH. Bridge positions count the residues as written; N and C are the ends. Square brackets hold non-standard residues; d marks the D form. Peptide text beside a SMILES is read from it. X2 = NC(N)=NCC[C@@H]1C[C@@H](C(=O)[*:2])N([*:1])C1; X1 = NC(N)=NCC[C@H]1C[C@@H](C(=O)[*:2])N([*:1])C1

The nature of one test: Relative biological activity was measured as EC50 analogue/ EC50 miniANP. In kind it is functional.
`CC[C@H](C)[C@@H]1NC(=O)[C@@H](CCCN=C(N)N)NC(=O)[C@H](CC(=O)O)NC(=O)[C@@H](CCSC)NC(=O)[C@@H]2CCCN2C(=O)CNC(=O)CNC(=O)[C@@H](Cc2ccccc2)NC(=O)[C@H](Cc2c[nH]cn2)NC(=O)[C@@H](NC(=O)[C@@H](N)CCSC)CSSC[C@H](C(=O)N[C@@H](Cc2ccc(O)cc2)C(=O)N[C@@H](CCCN=C(N)N)C(N)=O)NC(=O)[C@@H](CO)NC1=O`: the Ratio turned out to be 18.7. The same measure, in the same setting: for `CC[C@H](C)[C@@H]1NC(=O)[C@@H](CCCN=C(N)N)NC(=O)[C@H](CC(=O)O)NC(=O)[C@@H](CCSC)NC(=O)[C@H](CCCN=C(N)N)NC(=O)CNC(=O)CNC(=O)[C@@H](Cc2ccccc2)NC(=O)[C@H](Cc2c[nH]cn2)NC(=O)[C@@H](NC(=O)[C@@H](N)CCSC)CSSC[C@H](C(=O)N[C@@H](Cc2ccc(O)cc2)C(=O)N[C@@H](CCCN=C(N)N)C(N)=O)NC(=O)[C@@H](CO)NC1=O` [MiniANP] the value was 1. The same measure, in the same setting: under `CC[C@H](C)[C@@H]1NC(=O)[C@@H](CCCN=C(N)N)NC(=O)[C@H](CC(=O)O)NC(=O)[C@@H](CCSC)NC(=O)[C@H](C)NC(=O)CNC(=O)CNC(=O)[C@@H](Cc2ccccc2)NC(=O)[C@H](Cc2c[nH]cn2)NC(=O)[C@@H](NC(=O)[C@@H](N)CCSC)CSSC[C@H](C(=O)N[C@@H](Cc2ccc(O)cc2)C(=O)N[C@@H](CCCN=C(N)N)C(N)=O)NC(=O)[C@@H](CO)NC1=O` stands 44.3.

A further test can be described thus: Effective concentration required for production of cGMP in Chinese hamster ovary cells expressing natriuretic peptide receptor A (NPR-A). It is filed as functional, cell-based.
`CC[C@H](C)[C@@H]1NC(=O)[C@H](CCCN=C(N)N)NC(=O)[C@H](CC(=O)O)NC(=O)[C@H](CCSC)NC(=O)[C@H](C)NC(=O)CNC(=O)CNC(=O)[C@H](Cc2ccccc2)NC(=O)[C@H](Cc2c[nH]cn2)NC(=O)[C@@H](NC(=O)[C@@H](N)CCSC)CSSC[C@@H](C(=O)N[C@@H](Cc2ccc(O)cc2)C(=O)N[C@@H](CCCN=C(N)N)C(N)=O)NC(=O)[C@H](CO)NC1=O` gave an EC50 of 137 nM. Same read-out and setting: for `CC[C@H](C)[C@@H]1NC(=O)[C@H](CCCN=C(N)N)NC(=O)[C@H](CC(=O)O)NC(=O)[C@H](CCSC)NC(=O)[C@@H]2C[C@@H](CCN=C(N)N)CN2C(=O)CNC(=O)CNC(=O)[C@H](Cc2ccccc2)NC(=O)[C@H](Cc2c[nH]cn2)NC(=O)[C@@H](NC(=O)[C@@H](N)CCSC)CSSC[C@@H](C(=O)N[C@@H](Cc2ccc(O)cc2)C(=O)N[C@@H](CCCN=C(N)N)C(N)=O)NC(=O)[C@H](CO)NC1=O` (H-MCHFGG[X2]MDRISCYR-NH2; disulfide 2-13) the value was 1.3 nM; for `CC[C@H](C)[C@@H]1NC(=O)[C@H](CCCN=C(N)N)NC(=O)[C@H](CC(=O)O)NC(=O)[C@H](CCSC)NC(=O)[C@@H]2C[C@H](CCN=C(N)N)CN2C(=O)CNC(=O)CNC(=O)[C@H](Cc2ccccc2)NC(=O)[C@H](Cc2c[nH]cn2)NC(=O)[C@@H](NC(=O)[C@@H](N)CCSC)CSSC[C@@H](C(=O)N[C@@H](Cc2ccc(O)cc2)C(=O)N[C@@H](CCCN=C(N)N)C(N)=O)NC(=O)[C@H](CO)NC1=O` (H-MCHFGG[X1]MDRISCYR-NH2; disulfide 2-13), 4.6 nM; for `CC[C@H](C)[C@@H]1NC(=O)[C@H](CCCN=C(N)N)NC(=O)[C@H](CC(=O)O)NC(=O)[C@H](CCSC)NC(=O)[C@@H]2CCCN2C(=O)CNC(=O)CNC(=O)[C@H](Cc2ccccc2)NC(=O)[C@H](Cc2c[nH]cn2)NC(=O)[C@@H](NC(=O)[C@@H](N)CCSC)CSSC[C@@H](C(=O)N[C@@H](Cc2ccc(O)cc2)C(=O)N[C@@H](CCCN=C(N)N)C(N)=O)NC(=O)[C@H](CO)NC1=O`, 58.1 nM.
